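Five compound concentrations were applied to cells in 96-well plates for 48 hours; endpoints were derived by simple linear interpolation of the resulting dose-response curve. The concentration for full growth arrest is given as TGI.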
Columns and labels:
Assay in all cases: NCI-60 cell line screen, 48 h
UACC-62 melanoma = test system: UACC-62 melanoma
SK-MEL-2 melanoma = test system: SK-MEL-2 melanoma
SF-268 CNS = test system: SF-268 CNS
SK-OV-3 ovarian = test system: SK-OV-3 ovarian
A498 renal = test system: A498 renal
A549 NSCLC = test system: A549 NSCLC
SF-539 CNS = test system: SF-539 CNS
OVCAR-5 ovarian = test system: OVCAR-5 ovarian
TK-10 renal = test system: TK-10 renal
786-0 renal = test system: 786-0 renal
ACHN renal = test system: ACHN renal
LOX IMVI melanoma = test system: LOX IMVI melanoma
HCT-15 colon = test system: HCT-15 colon
UACC-257 melanoma = test system: UACC-257 melanoma
RPMI-8226 leukemia = test system: RPMI-8226 leukemia
KM12 colon = test system: KM12 colon
BT-549 breast = test system: BT-549 breast

## C=CCN(C)CN(C)c1nc(N(C)C)nc(N(C)C)n1
UACC-62 melanoma
  TGI: > 100 µM
SK-MEL-2 melanoma
  TGI: > 100 µM
SF-268 CNS
  TGI: > 100 µM
SK-OV-3 ovarian
  TGI: > 100 µM
A498 renal
  TGI: > 100 µM
A549 NSCLC
  TGI: > 100 µM
SF-539 CNS
  TGI: > 100 µM
OVCAR-5 ovarian
  TGI: > 100 µM
TK-10 renal
  TGI: > 100 µM
786-0 renal
  TGI: > 100 µM
ACHN renal
  TGI: > 100 µM
LOX IMVI melanoma
  TGI: > 100 µM
HCT-15 colon
  TGI: > 100 µM
UACC-257 melanoma
  TGI: > 100 µM
RPMI-8226 leukemia
  TGI: > 100 µM
KM12 colon
  TGI: > 100 µM

## Cc1c2c(n(CCN(C)C)c1C)NN=C(C#N)S2(=O)=O
UACC-62 melanoma
  TGI: > 100 µM
SK-MEL-2 melanoma
  TGI: > 100 µM
SF-268 CNS
  TGI: > 100 µM
SK-OV-3 ovarian
  TGI: > 100 µM
A549 NSCLC
  TGI: > 100 µM
SF-539 CNS
  TGI: > 100 µM
OVCAR-5 ovarian
  TGI: > 100 µM
TK-10 renal
  TGI: > 100 µM
786-0 renal
  TGI: > 100 µM
ACHN renal
  TGI: > 100 µM
LOX IMVI melanoma
  TGI: > 100 µM
HCT-15 colon
  TGI: > 100 µM
UACC-257 melanoma
  TGI: > 100 µM
RPMI-8226 leukemia
  TGI: > 100 µM
KM12 colon
  TGI: > 100 µM

## COc1ccc(C2SC(C)C(=O)N2c2nc(-c3nc(-c4ccc(Cl)cc4)cs3)cs2)cc1 (configuration not stated)
UACC-62 melanoma
  TGI: > 100 µM
SF-268 CNS
  TGI: > 100 µM
BT-549 breast
  TGI: > 100 µM
SK-OV-3 ovarian
  TGI: > 100 µM
A549 NSCLC
  TGI: > 100 µM
SF-539 CNS
  TGI: > 100 µM
OVCAR-5 ovarian
  TGI: > 100 µM
TK-10 renal
  TGI: > 100 µM
786-0 renal
  TGI: > 100 µM
ACHN renal
  TGI: > 100 µM
LOX IMVI melanoma
  TGI: > 100 µM
HCT-15 colon
  TGI: > 100 µM
UACC-257 melanoma
  TGI: > 100 µM
RPMI-8226 leukemia
  TGI: > 100 µM
KM12 colon
  TGI: > 100 µM

## CCOC(=O)c1ccc(-n2c(SCC)nc3sc(C)c(C)c3c2=O)cc1
UACC-62 melanoma
  TGI: > 100 µM
SK-MEL-2 melanoma
  TGI: > 100 µM
SF-268 CNS
  TGI: > 100 µM
SK-OV-3 ovarian
  TGI: > 100 µM
A498 renal
  TGI: > 100 µM
A549 NSCLC
  TGI: > 100 µM
SF-539 CNS
  TGI: > 100 µM
OVCAR-5 ovarian
  TGI: > 100 µM
TK-10 renal
  TGI: > 100 µM
786-0 renal
  TGI: > 100 µM
ACHN renal
  TGI: > 100 µM
LOX IMVI melanoma
  TGI: > 100 µM
HCT-15 colon
  TGI: > 100 µM
UACC-257 melanoma
  TGI: > 100 µM
RPMI-8226 leukemia
  TGI: > 100 µM
KM12 colon
  TGI: > 100 µM

## COc1c(O)c2c(=O)cc(OC)c3c4c(OC)cc(=O)c5c(O)c(OC)c6c(c(c1C(C(C)=O)C6C(C)O)c23)c54 (configuration not stated)
UACC-62 melanoma
  TGI: 1.01 µM
SF-268 CNS
  TGI: 3.92 µM
SK-OV-3 ovarian
  TGI: 2.49 µM
A498 renal
  TGI: 28.3 µM
A549 NSCLC
  TGI: 3.06 µM
SF-539 CNS
  TGI: 1.87 µM
OVCAR-5 ovarian
  TGI: 1.28 µM
TK-10 renal
  TGI: 3.65 µM
786-0 renal
  TGI: 3.81 µM
ACHN renal
  TGI: 1.09 µM
LOX IMVI melanoma
  TGI: 0.32 µM
HCT-15 colon
  TGI: 2.25 µM
UACC-257 melanoma
  TGI: 1.39 µM
RPMI-8226 leukemia
  TGI: 1.28 µM
KM12 colon
  TGI: 1.07 µM

## Cc1ccc(S(=O)(=O)NC(=O)Nc2ccc(S(N)(=O)=O)cc2S(N)(=O)=O)cc1
UACC-62 melanoma
  TGI: > 100 µM
SK-MEL-2 melanoma
  TGI: > 100 µM
SF-268 CNS
  TGI: > 100 µM
BT-549 breast
  TGI: > 100 µM
SK-OV-3 ovarian
  TGI: > 100 µM
A549 NSCLC
  TGI: > 100 µM
OVCAR-5 ovarian
  TGI: > 100 µM
TK-10 renal
  TGI: > 100 µM
786-0 renal
  TGI: > 100 µM
LOX IMVI melanoma
  TGI: > 100 µM
HCT-15 colon
  TGI: > 100 µM
UACC-257 melanoma
  TGI: > 100 µM
RPMI-8226 leukemia
  TGI: > 100 µM
KM12 colon
  TGI: > 100 µM

## O=c1cc(-c2ccccc2)oc2cc(OCCSCCCCCCCCCCSCCOc3ccc4c(=O)cc(-c5ccccc5)oc4c3)ccc12
UACC-62 melanoma
  TGI: > 100 µM
SK-MEL-2 melanoma
  TGI: > 100 µM
SF-268 CNS
  TGI: > 100 µM
SK-OV-3 ovarian
  TGI: > 100 µM
A549 NSCLC
  TGI: > 100 µM
TK-10 renal
  TGI: > 100 µM
786-0 renal
  TGI: > 100 µM
ACHN renal
  TGI: > 100 µM
LOX IMVI melanoma
  TGI: > 100 µM
HCT-15 colon
  TGI: > 100 µM
UACC-257 melanoma
  TGI: > 100 µM
RPMI-8226 leukemia
  TGI: > 100 µM
KM12 colon
  TGI: > 100 µM

## COc1cc(/C=C2/C(=O)N(C(=O)c3ccc(Cl)cc3)N=C2C)cc(OC)c1OC
UACC-62 melanoma
  TGI: > 100 µM
SK-MEL-2 melanoma
  TGI: > 100 µM
SF-268 CNS
  TGI: > 100 µM
SK-OV-3 ovarian
  TGI: > 100 µM
A498 renal
  TGI: > 100 µM
A549 NSCLC
  TGI: > 100 µM
SF-539 CNS
  TGI: > 100 µM
OVCAR-5 ovarian
  TGI: > 100 µM
TK-10 renal
  TGI: > 100 µM
786-0 renal
  TGI: > 100 µM
ACHN renal
  TGI: > 100 µM
LOX IMVI melanoma
  TGI: > 100 µM
HCT-15 colon
  TGI: > 100 µM
UACC-257 melanoma
  TGI: > 100 µM
RPMI-8226 leukemia
  TGI: > 100 µM
KM12 colon
  TGI: > 100 µM

## Cc1ccc(O)c(C(=O)CCCC(=O)c2cc(C)ccc2O)c1
UACC-62 melanoma
  TGI: > 100 µM
SK-MEL-2 melanoma
  TGI: > 100 µM
SF-268 CNS
  TGI: > 100 µM
SK-OV-3 ovarian
  TGI: > 100 µM
A498 renal
  TGI: > 100 µM
SF-539 CNS
  TGI: > 100 µM
OVCAR-5 ovarian
  TGI: > 100 µM
TK-10 renal
  TGI: > 100 µM
786-0 renal
  TGI: > 100 µM
ACHN renal
  TGI: > 100 µM
LOX IMVI melanoma
  TGI: > 100 µM
HCT-15 colon
  TGI: > 100 µM
UACC-257 melanoma
  TGI: > 100 µM
RPMI-8226 leukemia
  TGI: > 100 µM
KM12 colon
  TGI: > 100 µM

## COc1cc2c(cc1OC)C(=O)C(C1=C(SC(=N)N)C(=O)c3cc(OC)c(OC)cc31)C2 (configuration not stated)
UACC-62 melanoma
  TGI: > 100 µM
SK-MEL-2 melanoma
  TGI: > 100 µM
SF-268 CNS
  TGI: > 100 µM
SK-OV-3 ovarian
  TGI: > 100 µM
A549 NSCLC
  TGI: > 100 µM
SF-539 CNS
  TGI: > 100 µM
OVCAR-5 ovarian
  TGI: > 100 µM
786-0 renal
  TGI: > 100 µM
ACHN renal
  TGI: > 100 µM
LOX IMVI melanoma
  TGI: > 100 µM
HCT-15 colon
  TGI: > 100 µM
UACC-257 melanoma
  TGI: > 100 µM
RPMI-8226 leukemia
  TGI: > 100 µM
KM12 colon
  TGI: > 100 µM

## NCCN1CC2CCC(CC2)C1
UACC-62 melanoma
  TGI: > 10 µM
SK-MEL-2 melanoma
  TGI: > 10 µM
SF-268 CNS
  TGI: > 10 µM
SK-OV-3 ovarian
  TGI: > 10 µM
A498 renal
  TGI: > 10 µM
A549 NSCLC
  TGI: > 10 µM
SF-539 CNS
  TGI: > 10 µM
TK-10 renal
  TGI: > 10 µM
786-0 renal
  TGI: > 10 µM
ACHN renal
  TGI: > 10 µM
LOX IMVI melanoma
  TGI: > 10 µM
HCT-15 colon
  TGI: > 10 µM
UACC-257 melanoma
  TGI: > 10 µM
RPMI-8226 leukemia
  TGI: > 10 µM
KM12 colon
  TGI: > 10 µM

## Cn1ncnc1CCc1ccccc1
UACC-62 melanoma
  TGI: > 100 µM
SK-MEL-2 melanoma
  TGI: > 100 µM
SF-268 CNS
  TGI: > 100 µM
SK-OV-3 ovarian
  TGI: > 100 µM
A498 renal
  TGI: > 100 µM
A549 NSCLC
  TGI: > 100 µM
SF-539 CNS
  TGI: > 100 µM
OVCAR-5 ovarian
  TGI: > 100 µM
TK-10 renal
  TGI: > 100 µM
786-0 renal
  TGI: > 100 µM
ACHN renal
  TGI: > 100 µM
LOX IMVI melanoma
  TGI: > 100 µM
HCT-15 colon
  TGI: > 100 µM
UACC-257 melanoma
  TGI: > 100 µM
RPMI-8226 leukemia
  TGI: > 100 µM
KM12 colon
  TGI: > 100 µM

## O=C(/C=C/c1ccc(O)c(O)c1O)OCCc1ccccc1
UACC-62 melanoma
  TGI: > 100 µM
SK-MEL-2 melanoma
  TGI: > 100 µM
SF-268 CNS
  TGI: > 100 µM
SK-OV-3 ovarian
  TGI: > 100 µM
A498 renal
  TGI: > 100 µM
A549 NSCLC
  TGI: 52.8 µM
SF-539 CNS
  TGI: 70.7 µM
OVCAR-5 ovarian
  TGI: > 100 µM
TK-10 renal
  TGI: > 100 µM
786-0 renal
  TGI: 35.5 µM
ACHN renal
  TGI: > 100 µM
LOX IMVI melanoma
  TGI: 53.5 µM
HCT-15 colon
  TGI: 51.9 µM
UACC-257 melanoma
  TGI: > 100 µM
RPMI-8226 leukemia
  TGI: 52.6 µM
KM12 colon
  TGI: 46.4 µM

## COc1cc(N(CCC#N)CCC#N)ccc1/C(N=Nc1ccccc1)=N/NC(=O)c1cc(Br)ccc1O
UACC-62 melanoma
  TGI: 46.7 µM
SK-MEL-2 melanoma
  TGI: 85.1 µM
SF-268 CNS
  TGI: > 100 µM
BT-549 breast
  TGI: 65.2 µM
SK-OV-3 ovarian
  TGI: > 100 µM
A549 NSCLC
  TGI: > 100 µM
SF-539 CNS
  TGI: 83.7 µM
OVCAR-5 ovarian
  TGI: > 100 µM
TK-10 renal
  TGI: > 100 µM
786-0 renal
  TGI: > 100 µM
ACHN renal
  TGI: 81.6 µM
LOX IMVI melanoma
  TGI: 65.1 µM
HCT-15 colon
  TGI: 68.2 µM
UACC-257 melanoma
  TGI: 62.8 µM
RPMI-8226 leukemia
  TGI: 44.6 µM
KM12 colon
  TGI: > 100 µM
